# Test results published in US11565998B2, “Succinate prodrug, compositions containing the succinate prodrug and uses thereof” (ABLIVA AB, priority 2019, dated 2023).
# Legend:
# [1] = Stability in purified (HPLC grade) or non-purified (tap) water; type: physicochemical; conditions: room temperature, 6 days
# Procedure: A side-by-side experiment of the stability of Compound 1 in ‘purified’ HPLC grade water (Fisher Scientific) and ‘non-purified’ tap water was set up. In brief, 1 mg/mL solutions of Compound 1 were generated in ‘purified’ HPLC grade water (Fisher Scientific) and ‘non-purified’ tap water. These were incubated at room temperature for up to 10 days. Concentration and purity of Compound 1 was assessed over time by HPLC in comparison to a standard (AUC of 8.21 RT peak at 230 nm for calculated concentration and AUC of Compound 1 peak vs impurities for purity analysis). Data presented is the average of two samples.
# [2] = Mineral instability (inorganic salts in water); type: physicochemical; conditions: for Percentage of Compound 1 remaining compared to T = 0: 1 mg/ml, room temperature
# Procedure: Compound 1 Batch 14 (2-3 mg) was dissolved in water for injection at room temperature (WFI) (1 mg/ml) containing different sources of minerals commonly found in tap water (with different accompanying counter ions to be able to distinguish differences between the effects of cation or anion) and samples were taken at different time intervals for HPLC analysis.
# Mineral sources used in the form of inorganic salts:
# CuCl2, CaCl2), NiSO4, CoCl2, NH4Cl, MnCl2, NaF, NaNO3, CuSO4, Ca(NO3)2, AlSO4, CaCO3, (NH4)2CO3.
# Caco-2 cells = assay: Caco-2 bioavailability in vitro assay (apparent permeability); type: in vitro ADME; conditions: Caco-2
# Procedure: (§1) The cell penetrance and potential for oral bioavailability of Compound 1 was tested using a standard caco-2 bioavailability in vitro assay (in brief, confluent Caco-2 cells (L1, A. P., 1992; Grass, G. M; et al., 1992, Volpe, D. A., et al., 2001) in a 24 well Corning Costar Transwell format were provided by In Vitro Technologies Inc. (IVT Inc., Baltimore, Md., USA). The apical chamber contained 0.15 mL Hank's balanced buffer solution (HBBS) pH 7.4, 1% DMSO, 0.1 mM Lucifer Yellow. The basal chamber contained 0.6 mL HBBS pH 7.4, 1% DMSO. Controls and tests were incubated at 37° C. in a humidified incubator, shaken at 130 rpm for 1 h. Lucifer Yellow permeates via the paracellular (between the tight junctions) route only, a high Apparent Permeability (Papp) for Lucifer Yellow indicates cellular damage during assay and all such wells were rejected. Propranolol (good passive permeation with no known transporter effects) & acebutalol (poor passive permeation attenuated by active efflux by P-glycoprotein) were used as reference compounds. Compounds were tested in a uni- and bi-directional format by applying compound to the apical or basal chamber (at 0.01 mM). Compounds in the apical or basal chambers were analysed by HPLC-MS. Results were expressed as Apparent Permeability, Papp, (nm/s), in comparison to other succinate prodrugs, including a number from WO2015/155231.
# [3] = as above; type: in vitro ADME; conditions: human; Caco-2, apical to basolateral, 0.01 mM, pH 7.4, 1 h, 37° C.
# Procedure: as §1
# [4] = Solubility of batches of different crystallinity; type: physicochemical; conditions: HPLC-grade water, water, thermodynamic from solid, mainly amorphous material (as worded, refers to Example 10); read-out: aqueous solubility
# Procedure: Two batches of Compound 1 were generated with different crystallinity. Batch 2 had higher crystallinity than Batch 3, which is regarded as having a higher degree of amorphous Compound 1-Batch 2 is therefore regarded as a more crystalline batch, whereas Batch 3 is regarded as a more amorphous batch. The methods used are discussed in this document.
# A sample of the more amorphous Compound 1 batch 3 was added to PBS or water to a final concentration of 258 mg/mL and sonicated for 10 minutes, then shaken for 30 minutes.
# A sample of the more crystalline Compound 1 batch 2 was added to HPLC-grade water (Fisher) to a final concentration of 30 mg/mL and sonicated for 10 minutes, then shaken for 30 minutes.
# A sample of the more crystalline Compound 1 batch 2 was added to HPLC-grade water (Fisher) to a final concentration of 52 mg/mL and sonicated for 20 minutes, then shaken for 1 hour.
# A sample of the more crystalline Compound 1 batch 2 was added to HPLC-grade water (Fisher) to a final concentration of […] and sonicated for 20 minutes, then shaken for 1.5 hours.
# [5] = Carbonate concentration dependence; type: physicochemical; conditions: HPLC water, 1 mg/ml
# Procedure: Compound 1 Batch 14 (2-3 mg) was dissolved in HPLC grade water (1 mg/ml) containing different concentrations of calcium carbonate and samples were taken at different time intervals for HPLC analysis.
smiles,measurement,setting,value
"COC(=O)CCC(=O)SCCNC(C)=O [Compound 1, Methyl 3-[(2-acetylaminoethylthio)carbonyl]propionate]",degradation (loss in purity and assay),[1]; (non-purified) tap water,Significant degradation
same,degradation (loss in purity and assay),[1]; (purified) HPLC grade water,not observed
same,Percentage of Compound 1 remaining compared to T = 0,"[2]; (NH4)2CO3 in water, batch 14, day 0",100%
same,Percentage of Compound 1 remaining compared to T = 0,"[2]; (NH4)2CO3 in water, batch 14, day 7",91.3%
same,Percentage of Compound 1 remaining compared to T = 0,"[2]; (NH4)2CO3 in water, batch 14, day 14",87.4%
same,Percentage of Compound 1 remaining compared to T = 0,"[2]; AlSO4 in water, batch 14, day 0",100%
same,Percentage of Compound 1 remaining compared to T = 0,"[2]; AlSO4 in water, batch 14, day 7",99.8%
same,Percentage of Compound 1 remaining compared to T = 0,"[2]; AlSO4 in water, batch 14, day 14",100%
same,Percentage of Compound 1 remaining compared to T = 0,"[2]; Ca(NO3)2 in water, batch 14, day 0",100%
same,Percentage of Compound 1 remaining compared to T = 0,"[2]; Ca(NO3)2 in water, batch 14, day 7",99.4%
same,Percentage of Compound 1 remaining compared to T = 0,"[2]; Ca(NO3)2 in water, batch 14, day 14",98.9%
same,Percentage of Compound 1 remaining compared to T = 0,"[2]; CaCO3 in water, batch 14, day 0",100%
same,Percentage of Compound 1 remaining compared to T = 0,"[2]; CaCO3 in water, batch 14, day 7",79.5%
same,Percentage of Compound 1 remaining compared to T = 0,"[2]; CaCO3 in water, batch 14, day 14",66.0%
same,Percentage of Compound 1 remaining compared to T = 0,"[2]; CaCl2 in water, batch 14, day 0",100%
same,Percentage of Compound 1 remaining compared to T = 0,"[2]; CaCl2 in water, batch 14, day 7",100%
same,Percentage of Compound 1 remaining compared to T = 0,"[2]; CaCl2 in water, batch 14, day 14",97.9%
same,Percentage of Compound 1 remaining compared to T = 0,"[2]; CoCl2 in water, batch 14, day 0",100%
same,Percentage of Compound 1 remaining compared to T = 0,"[2]; CoCl2 in water, batch 14, day 7",101%
same,Percentage of Compound 1 remaining compared to T = 0,"[2]; CoCl2 in water, batch 14, day 14",101%
same,Percentage of Compound 1 remaining compared to T = 0,"[2]; CuCl2 in water, batch 14, day 0",100%
same,Percentage of Compound 1 remaining compared to T = 0,"[2]; CuCl2 in water, batch 14, day 7",99.5%
same,Percentage of Compound 1 remaining compared to T = 0,"[2]; CuCl2 in water, batch 14, day 14",98.3%
same,Percentage of Compound 1 remaining compared to T = 0,"[2]; CuSO4 in water, batch 14, day 0",100%
same,Percentage of Compound 1 remaining compared to T = 0,"[2]; CuSO4 in water, batch 14, day 7",100%
same,Percentage of Compound 1 remaining compared to T = 0,"[2]; CuSO4 in water, batch 14, day 14",99.4%
same,Percentage of Compound 1 remaining compared to T = 0,"[2]; MnCl2 in water, batch 14, day 0",100%
same,Percentage of Compound 1 remaining compared to T = 0,"[2]; MnCl2 in water, batch 14, day 7",98.9%
same,Percentage of Compound 1 remaining compared to T = 0,"[2]; MnCl2 in water, batch 14, day 14",99.2%
same,Percentage of Compound 1 remaining compared to T = 0,"[2]; NH4Cl in water, batch 14, day 0",100%
same,Percentage of Compound 1 remaining compared to T = 0,"[2]; NH4Cl in water, batch 14, day 7",101%
same,Percentage of Compound 1 remaining compared to T = 0,"[2]; NH4Cl in water, batch 14, day 14",99.8%
same,Percentage of Compound 1 remaining compared to T = 0,"[2]; NaF in water, batch 14, day 0",100%
same,Percentage of Compound 1 remaining compared to T = 0,"[2]; NaF in water, batch 14, day 7",101%
same,Percentage of Compound 1 remaining compared to T = 0,"[2]; NaF in water, batch 14, day 14",100%
same,Percentage of Compound 1 remaining compared to T = 0,"[2]; NaNO3 in water, batch 14, day 0",100%
same,Percentage of Compound 1 remaining compared to T = 0,"[2]; NaNO3 in water, batch 14, day 7",99.2%
same,Percentage of Compound 1 remaining compared to T = 0,"[2]; NaNO3 in water, batch 14, day 14",99.4%
same,Percentage of Compound 1 remaining compared to T = 0,"[2]; NiSO4 in water, batch 14, day 0",100%
same,Percentage of Compound 1 remaining compared to T = 0,"[2]; NiSO4 in water, batch 14, day 7",98.4%
same,Percentage of Compound 1 remaining compared to T = 0,"[2]; NiSO4 in water, batch 14, day 14",99.1%
same,Percentage of Compound 1 remaining compared to T = 0,"[2]; WFl, batch 14, day 0",100%
same,Percentage of Compound 1 remaining compared to T = 0,"[2]; WFl, batch 14, day 7",98.7%
same,Percentage of Compound 1 remaining compared to T = 0,"[2]; WFl, batch 14, day 14",97.7%
same,degradation in aqueous solution with carbonate ions,[2]; vs other mineral salts,degrades more rapidly
same,"Apical to Basolateral transfer, rank among prodrugs tested",Caco-2 cells,highest
same,"Papp A→B at 1 h, 0.01 mM",[3],0.412 ×10⁻⁶ cm/s
same,solubility at 1.5 h,[4],850 mg/mL
same,Percentage of Compound 1 remaining compared to T = 0,"[5]; CaCO3 (0 mM), batch 14, day 0",100%
same,Percentage of Compound 1 remaining compared to T = 0,"[5]; CaCO3 (0 mM), batch 14, day 7",98.7%
same,Percentage of Compound 1 remaining compared to T = 0,"[5]; CaCO3 (0 mM), batch 14, day 14",98.6%
same,Percentage of Compound 1 remaining compared to T = 0,"[5]; CaCO3 (0.425 mM), batch 14, day 0",100%
same,Percentage of Compound 1 remaining compared to T = 0,"[5]; CaCO3 (0.425 mM), batch 14, day 7",98.1%
same,Percentage of Compound 1 remaining compared to T = 0,"[5]; CaCO3 (0.425 mM), batch 14, day 14",98.4%
same,Percentage of Compound 1 remaining compared to T = 0,"[5]; CaCO3 (0.85 mM), batch 14, day 0",100%
same,Percentage of Compound 1 remaining compared to T = 0,"[5]; CaCO3 (0.85 mM), batch 14, day 7",97.8%
same,Percentage of Compound 1 remaining compared to T = 0,"[5]; CaCO3 (0.85 mM), batch 14, day 14",97.1%
same,Percentage of Compound 1 remaining compared to T = 0,"[5]; CaCO3 (1.7 mM), batch 14, day 0",100%
same,Percentage of Compound 1 remaining compared to T = 0,"[5]; CaCO3 (1.7 mM), batch 14, day 7",93.8%
same,Percentage of Compound 1 remaining compared to T = 0,"[5]; CaCO3 (1.7 mM), batch 14, day 14",90.8%
same,Percentage of Compound 1 remaining compared to T = 0,"[5]; CaCO3 (3.4 mM), batch 14, day 0",100%
same,Percentage of Compound 1 remaining compared to T = 0,"[5]; CaCO3 (3.4 mM), batch 14, day 7",83.4%
same,Percentage of Compound 1 remaining compared to T = 0,"[5]; CaCO3 (3.4 mM), batch 14, day 14",71.4%
